{
  "source": "patent US20130158024A1",
  "about": "“TRICYCLIC NECROSTATIN COMPOUNDS” (priority 2005, published 2013)",
  "key": {"[1]": {"test_system": "FADD-deficient Jurkat T cells treated with TNF-α", "experiment": "Inhibition of necroptosis (CICD) in FADD-deficient Jurkat T cells treated with TNF-α, ATP-based viability", "type": "cell-based, human"}, "[2]": {"test_system": "FADD deficient Jurkat cells"}, "[3]": {"test_system": "Jurkat cells expressing dimerizable FADD", "settings": "dimerizer and zVAD.fmk, 48 hours"}, "L929 cells": {"test_system": "L929 cells", "experiment": "TNFα-induced CICD of L929 cells, ATP assay", "type": "cell-based, mouse", "settings": "no caspase inhibitor", "protocol": "Cell viability was determined using ATP-Lite-M ATP assay (Packard). The values represent viability relative to the control lacking TNFα, which was set as 100% viability.\nCell viability in this and subsequent panels was determined by ATP-based viability assay. Numbers represent percentages of the live cells normalized to those in the untreated control wells. Throughout, error bars represent standard deviations. […] Numbers represent viability normalized to that of the corresponding compound-treated cells in the absence of FasL. […] Numbers represent viability normalized to that of the corresponding compound-treated cells in the absence of dimerizer. […] Cells were treated with TNFα (E, F, H), zVAD.fmk (E, F), or CHX (F) for 16 (F) or 24 (E, H) hours. Numbers represent viability normalized to that of the compound-treated cells in the absence of TNFα."}, "B cell": {"test_system": "B cell", "experiment": "B cell activation (LPS/IL-4) of splenocytes suppressed by zVAD.fmk, FACS", "type": "cell-based, mouse", "settings": "100 μM zVAD.fmk, 30 μM compound, 72 hours", "protocol": "Cells were stained with αB220-FITC antibody (Pharmingen), and B cell numbers were determined by FACS. Cell numbers are normalized to the number of cells in unstimulated control, which was set as 100%."}, "CD8+ cells": {"test_system": "CD8+ cells", "experiment": "Activation and proliferation of CD8+ cytotoxic T lymphocytes (CTL) suppressed by zVAD.fmk", "type": "cell-based, mouse", "settings": "100 μM zVAD.fmk, 30 μM compound", "protocol": "Numbers of cells were determined using FACS analyses. Cell numbers are normalized to the number of cells in unstimulated control, which was set as 100%. […] Cells were stained with αCD8^+-FITC antibody (Pharmingen) and CD8^+ cell numbers were determined by FACS. Cell numbers are normalized to the number of cells in unstimulated control, which was set as 100%. Percentages of dead cells (line) was determined by co-staining cells with propidium iodide.\nValues represent fold increase over unstimulated control.\nCells were stained with αCD8^+-FITC antibody (Pharmingen), and CD8^+ cell numbers were determined by FACS. Cell numbers are normalized to the number of cells in unstimulated control, which was set as 100%. Percentages of dead cells (line) were determined by co-staining cells with propidium iodide."}, "Jurkat cells": {"test_system": "Jurkat cells", "experiment": "Apoptosis of Jurkat cells induced by FasL without or with cycloheximide", "type": "cell-based, human", "settings": "FasL or FasL/CHX, no zVAD", "protocol": "Jurkat cells were treated with 5 ng/ml of FasL without (A) or with cyclohexamide (CHX) (B) to induce apoptosis, or 5 ng/ml FasL, 1 μg/ml of CHX and 100 μM of zVAD.fmk to induce CICD (B). […] Cell viability was determined after 24 hours of incubation with indicated reagents using CellTiter-Glo ATP assay. The values represent viability relative to the control Jurkat cells without the treatment of FasL, which was set as 100% viability.\nCells were stained with DiOC6 or annexin V and EGFP-PI as described in FIG. 26A and FIG. 26B. […] Cell viability was determined by an ATP assay. Numbers represent viability normalized to that of the compound-treated cells in the absence of TNFα. […]\nWe seeded cells in 96-well plates (white plates for luminescent assays; black plates for fluorescent assays; clear plates for MTT assay) at the density of 5,000-10,000 cells per well for adherent cells or 20,000-50,000 cells per well for suspension cells in 100 μl of the appropriate phenol red-free media. After incubation, we determined cell viability using one of the following methods. For the ATP assay, we used luminescence-based commercial kits (CellTiter-Glo, Promega or ATPLite-M, PerkinElmer) and analyzed luminescence using a Wallac Victor II plate reader (PerkinElmer). For Sytox assay, we incubated cells with 1 μM Sytox Green reagent for thirty minutes at 37° C., and then performed fluorescent reading. […]"}, "U937 cells": {"test_system": "U937 cells", "experiment": "Oxidative stress (menadione) induced death of U937 cells, ATP assay", "type": "cell-based, human", "settings": "250 μM menadione, 24 hours", "protocol": "Viability of TNFα/zVAD/DMSO or manadione/DMSO blank treated cells is also shown (- - -). Viability was determined using ATP-Lite-M assay (Packard). Numbers represent percentages of live cells. The values were normalized relative to the zVAD or DMSO treated controls, which were set as 100% viability.\nIn this and subsequent panels, cell viability was determined via ATP assay. Numbers represent viability normalized to that of the DMSO-treated cells in the absence of TNFα and menadione. Throughout, error bars represent standard deviations. […] Representative images are shown. […] Protein lysates were subjected to western blotting with antibodies to LC3 and to tubulin. The ratio of LC3-II to tubulin signals was calculated (“Ratio”) and normalized to the value in the control sample. […] Alternatively, cells were treated with 2 μM rapamycin. […] Numbers represent viability normalized to that of the compound-treated cells in the absence of TNFα. In FIG. 28H, expression of beclin-1 (“Bec”) and tubulin (“Tub”) in the stable populations of cells in FIG. 28G was analyzed by western blotting."}},
  "note": "“Also recorded” adds a separate entry of the source. Where two headings read alike, the source gives them in different places.",
  "data": [
    {"substance": "methylthiohydantoin-tryptophane [Nec-1]", "values": [
      {"measurement": "EC50", "setting": "[1]; 10 ng/mL human TNF-α, 24 hours, ATP-based viability, EC50 ± SD from at least two independent experiments, read-out: EC50 (μM) for inhibition of necroptosis", "result": 0.05, "unit": "µM"},
      {"measurement": "antinecroptotic (anti-CICD) activity, in words", "setting": "[1]; FADD-deficient Jurkat cells, TNFα", "result": "allowed proliferation of TNFα-treated FADD-deficient cells at a rate indistinguishable from untreated cells; also recorded: prevented the death of TNFα-treated FADD-deficient Jurkat cells"},
      {"measurement": "EC50", "setting": "[1]; Jurkat FADD deficient cells treated with TNFα, read-out: EC50", "result": 0.494, "unit": "µM"},
      {"measurement": "EC50", "setting": "[1]; concentration required to rescue 50% of cell death, TNFα for 36 hours, ATP assay, read-out: EC50", "result": 0.494, "unit": "µM"},
      {"measurement": "non-specific cytotoxicity, in words", "setting": "[2]; 24 hours, ATP assay", "result": "does not induce non-specific cytotoxicity in FADD-deficient Jurkat cells"},
      {"measurement": "LD50", "setting": "[2]; compound in the absence of TNFα", "result": 374, "unit": "µM"},
      {"measurement": "inhibition of necrotic death, in words", "setting": "[3]", "result": "inhibited all published examples of necrotic cell death induced by DR activation in the presence of caspase inhibitors"},
      {"measurement": "protection of L929 cells from TNFα-induced CICD, in words", "setting": "L929 cells", "result": "protects L929 cells from CICD; also recorded: unlike Nec-1; also recorded: efficiently inhibited the TNFα-induced necrotic death of L929 cells"},
      {"measurement": "B cell activation in the presence of zVAD.fmk, in words", "setting": "B cell", "result": "promotes B cell activation; also recorded: attenuated suppression of B cell activation by zVAD.fmk"},
      {"measurement": "restoration of CTL activation/proliferation suppressed by zVAD.fmk, in words", "setting": "CD8+ cells", "result": "restores normal activation of CTLs inhibited by caspase inhibition; also recorded: restoration of CTL proliferation by Nec-1; also recorded: completely suppressed by Nec-1; also recorded: suppression of cell proliferation was prevented in the presence of Nec-1"},
      {"measurement": "protection from apoptosis, in words", "setting": "Jurkat cells", "result": "but not apoptosis induced by FasL or FasL/CHX; also recorded: lack of cytoprotection by Nec-1 in apoptotic Jurkat cells treated with FasL-CHX for 24 hours; also recorded: but not by Nec-1; also recorded: could not be inhibited by Nec-1; also recorded: had no effect on FasL-CHX-induced accumulation of annexin V-positive and propidium iodide (PI)-negative cells"},
      {"measurement": "protection from menadione induced cell death, in words", "setting": "U937 cells", "result": "did not block the “classic” oxidative stress-induced necrosis caused by menadione"}
    ]}
  ]
}
